Measured values as given in ChEMBL document CHEMBL5360557 (Eur J Med Chem, 2023).

Key:
Cholinesterase [1] = biological target: T1, Cholinesterase (Homo sapiens, UniProt P06276); test: Inhibition of recombinant human BuChE using butyrylthiocholine iodide as substrate at 10 uM preincubated with enzyme for 5 mins followed by substrate addition and measured after 1 min by Ellman's method relative to control; details: time 6.0 min
Acetylcholinesterase [2] = biological target: T2, Acetylcholinesterase (Homo sapiens, UniProt P22303); test: Inhibition of recombinant human AChE using acetylthiocholine iodide as substrate preincubated with enzyme for 5 mins followed by substrate addition and measured after 1 min by Ellman's method
T2 sequence (P22303 whole entry): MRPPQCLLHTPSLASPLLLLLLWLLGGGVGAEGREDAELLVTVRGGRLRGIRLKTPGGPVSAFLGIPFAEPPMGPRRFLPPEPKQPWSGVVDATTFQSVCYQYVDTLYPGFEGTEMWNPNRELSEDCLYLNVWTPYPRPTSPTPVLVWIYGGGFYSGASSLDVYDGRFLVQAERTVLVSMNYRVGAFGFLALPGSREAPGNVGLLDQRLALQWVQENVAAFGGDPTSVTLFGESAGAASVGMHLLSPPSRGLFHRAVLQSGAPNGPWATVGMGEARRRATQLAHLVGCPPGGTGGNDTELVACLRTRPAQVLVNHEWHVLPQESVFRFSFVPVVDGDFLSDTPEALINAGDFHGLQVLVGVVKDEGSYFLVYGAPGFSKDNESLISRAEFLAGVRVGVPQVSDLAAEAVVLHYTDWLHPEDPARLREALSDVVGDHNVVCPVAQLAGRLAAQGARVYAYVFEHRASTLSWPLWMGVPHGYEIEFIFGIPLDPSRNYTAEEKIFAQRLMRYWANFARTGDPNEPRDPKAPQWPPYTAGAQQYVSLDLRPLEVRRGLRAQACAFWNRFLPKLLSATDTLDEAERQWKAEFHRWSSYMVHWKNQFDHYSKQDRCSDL

Cholinesterase [3] = biological target: T1, Cholinesterase; test: Inhibition of recombinant human BuChE using butyrylthiocholine iodide as substrate preincubated with enzyme for 5 mins followed by substrate addition and measured after 1 min by Ellman's method
[4] = Cytotoxicity against human SH-SY5Y cells assessed as inhibition of cell growth incubated for 24 hrs by MTT assay; assay type: toxicity, cell-based
[5] = Cytotoxicity against human HepG2 cells assessed as inhibition of cell growth incubated for 24 hrs by MTT assay; assay type: toxicity, cell-based
in vitro = details: PAMPA
Description: Permeability of the compound incubated for 3 to 6 hrs by PAMPA-BBB assay

Cholinesterase [6] = biological target: T1, Cholinesterase; test: Inhibition of human BuChE using butyrylthiocholine iodide as substrate incubated for 1 min by spectrophotometry based Ellman's method
Acetylcholinesterase [7] = biological target: T2, Acetylcholinesterase; test: Inhibition of human AChE using acetylthiocholine iodide as substrate incubated for 1 min by spectrophotometry based Ellman's method
Homo sapiens = species on record: Homo sapiens; test: Selectivity ratio of IC50 for inhibition of human AChE using acetylthiocholine as substrate to IC50 for inhibition of human BuChE using butyrylthiocholine iodide as substrate

T1 sequence (P06276 whole entry): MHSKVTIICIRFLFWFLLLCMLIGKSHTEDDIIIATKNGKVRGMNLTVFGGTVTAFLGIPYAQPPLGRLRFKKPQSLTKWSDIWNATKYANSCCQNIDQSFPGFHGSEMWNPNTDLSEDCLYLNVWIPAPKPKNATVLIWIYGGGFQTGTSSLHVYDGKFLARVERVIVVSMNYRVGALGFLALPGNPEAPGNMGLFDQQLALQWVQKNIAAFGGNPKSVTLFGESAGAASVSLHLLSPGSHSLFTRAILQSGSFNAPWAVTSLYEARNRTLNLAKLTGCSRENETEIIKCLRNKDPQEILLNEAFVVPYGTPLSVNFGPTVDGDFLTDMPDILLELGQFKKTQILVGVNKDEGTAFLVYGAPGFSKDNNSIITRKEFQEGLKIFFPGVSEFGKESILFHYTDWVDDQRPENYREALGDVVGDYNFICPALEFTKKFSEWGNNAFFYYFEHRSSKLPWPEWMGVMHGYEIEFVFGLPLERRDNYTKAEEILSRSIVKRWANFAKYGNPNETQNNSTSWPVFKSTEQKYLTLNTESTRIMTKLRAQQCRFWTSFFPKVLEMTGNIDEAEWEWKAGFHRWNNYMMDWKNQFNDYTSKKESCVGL

Row | Structure (SMILES) | inhibition (Cholinesterase [1]) [%] | IC50 (Acetylcholinesterase [2]) [µM] | IC50 (Cholinesterase [3]) [µM] | IC50 at 24 h [4] [µM] | IC50 at 24 h [5] [µM] | Papp (in vitro) [×10⁻⁶ cm/s] | IC50 (Cholinesterase [6]) [µM] | IC50 (Acetylcholinesterase [7]) [µM] | Ratio IC50 (Homo sapiens)
1 | CCCN(CCc1ccc(OC)cc1)Cc1cccc(OC)c1OCc1ccccc1 | 82 | > 10 | 1.4 |  |  |  |  |  | 
2 | COc1cccc(/C=N/CCc2ccc(O)cc2)c1OCc1ccccc1 | 48 | > 10 | 8 |  |  |  |  |  | 
3 | C=CCN(CCc1ccc(O)cc1)Cc1cccc(OC)c1OCc1ccccc1 | 96 | > 10 | 0.3 |  |  |  |  |  | 
4 | COc1cccc(CNCC(C)c2ccccc2)c1OCc1ccccc1 (stereo not drawn) | 96 | > 10 | 0.16 |  |  |  |  |  | 
5 | COc1cccc(CNCCCCc2ccccc2)c1OCc1ccccc1 | 94 | > 10 | 0.2 |  |  |  |  |  | 
6 | COc1cccc(CN(CCCc2ccccc2F)C2CCCC2)c1OCc1ccccc1 | 99 | > 10 | 0.006 | 55 | 28 | 61 |  |  | 
7 | C#CCN(CCc1ccc(O)cc1)Cc1cccc(OC)c1OCc1ccccc1 | 78 | > 10 | 1.9 |  |  |  |  |  | 
8 | COc1cccc(CNCc2ccccc2)c1OCc1ccccc1 | 78 | > 10 | 1.5 |  |  |  |  |  | 
9 | CCCCCCCCCCCCCCN(CCCCc1ccccc1)Cc1cccc(OC)c1OCc1ccccc1 | 25 | > 10 | > 10 |  |  |  |  |  | 
10 | C#CCN(CCc1ccccc1)Cc1cccc(OC)c1OCc1ccccc1 | 46 | > 10 | > 10 |  |  |  |  |  | 
11 | CCCN(CCc1ccccc1OC)Cc1cccc(OC)c1OCc1ccccc1 | 92 | > 10 | 0.7 |  |  |  |  |  | 
12 | COc1cc(CN(C)CCc2ccc(O)cc2)c(-c2cccc3c2N(C)CC3)cc1OC |  |  |  |  |  |  | 0.91 | > 100 | 
13 | COc1cccc(CNCCc2ccccc2)c1OCc1ccccc1 | 93 | > 10 | 0.4 |  |  |  |  |  | 
14 | C#CCN(CCc1cccc(OC)c1)Cc1cccc(OC)c1OCc1ccccc1 | 28 | > 10 | > 10 |  |  |  |  |  | 
15 | COc1cccc(CCNCc2cccc(OC)c2OCc2ccccc2)c1 | 77 | > 10 | 2.5 |  |  |  |  |  | 
16 | CCCN(CCCc1ccc(F)cc1)Cc1cccc(OC)c1OCc1ccccc1 | 96 | > 10 | 0.1 | 170 | 32 | 61 |  |  | 
17 | CN(CCc1ccc(O)cc1)Cc1cc2c(cc1-c1cccc3c1N(C)CC3)OCO2 |  |  |  |  |  |  |  | > 100 | 
18 | CCCN(CCc1ccccc1)Cc1cccc(OC)c1OCc1ccccc1 | 91 | > 10 | 0.5 |  |  |  |  |  | 
19 | COc1ccccc1CCNCc1cccc(OC)c1OCc1ccccc1 | 88 | > 10 | 0.8 |  |  |  |  |  | 
20 | COc1cccc(CNCCCc2ccccc2)c1OCc1ccccc1 | 97 | > 10 | 0.09 | 8.9 |  | 21 |  |  | 

Row | Structure (SMILES) | inhibition (Cholinesterase [1]) [%] | IC50 (Acetylcholinesterase [2]) [µM] | IC50 (Cholinesterase [3]) [µM] | IC50 at 24 h [4] [µM] | IC50 at 24 h [5] [µM] | Papp (in vitro) [×10⁻⁶ cm/s] | IC50 (Cholinesterase [6]) [µM] | IC50 (Acetylcholinesterase [7]) [µM] | Ratio IC50 (Homo sapiens)
21 | CO/N=C(\C(=O)N[C@@H]1C(=O)N2C(C(=O)O)=C(COC(N)=O)CS[C@H]12)c1ccco1 [CEFUROXIME] |  |  |  |  |  | 0.6 |  |  | 
22 | CCCCCCN(CCCCc1ccccc1)Cc1cccc(OC)c1OCc1ccccc1 | 78 | > 10 | 0.7 |  |  |  |  |  | 
23 | CCCN(CCc1ccc(O)cc1)Cc1cccc(OC)c1OCc1ccccc1 | 95 | > 10 | 0.09 | 44 | 43 | 14 |  |  | 
24 | CCCN(CCCc1ccccc1F)Cc1cccc(OC)c1OCc1ccccc1 | 97 | > 10 | 0.02 | 49 | 33 | 85 |  |  | 
25 | C=CCOc1ccc(CCN(CC=C)Cc2cccc(OC)c2OCc2ccccc2)cc1 | 71 | > 10 | 1.3 |  |  |  |  |  | 
26 | C#CCN(CCc1ccccc1OC)Cc1cccc(OC)c1OCc1ccccc1 | 35 | > 10 | > 10 |  |  |  |  |  | 
27 | CCCCCCN(CCCc1ccccc1)Cc1cccc(OC)c1OCc1ccccc1 | 95 | > 10 | 0.04 | 110 | 106 | 9 |  |  | 
28 | C#CCOc1ccc(CCN(CC#C)Cc2cccc(OC)c2OCc2ccccc2)cc1 | 72 | > 10 | 0.2 |  |  |  |  |  | 
29 | CCN(CCc1ccccc1)Cc1cccc(OC)c1OCc1ccccc1 | 91 | > 10 | 0.6 |  |  |  |  |  | 
30 | CCN(CCc1ccc(O)cc1)Cc1cccc(OC)c1OCc1ccccc1 | 94 | > 10 | 0.3 |  |  |  |  |  | 
31 | COc1ccc2c3c1O[C@H]1C[C@@H](O)C=C[C@@]31CCN(C)C2 [GALANTAMINE] |  |  |  | 4700 | 4200 |  |  |  | 
32 | CCN(CCc1ccc(OC)cc1)Cc1cccc(OC)c1OCc1ccccc1 | 77 | > 10 | 2.5 |  |  |  |  |  | 
33 | CCCN(CCCc1ccccc1)Cc1cccc(OC)c1OCc1ccccc1 | 98 | > 10 | 0.04 | > 63 | 48 | 32 |  |  | 
34 | CCCN(CCCc1ccc(O)cc1)Cc1cccc(OC)c1OCc1ccccc1 | 98 | > 10 | 0.07 | 44 | 31 | 16 |  |  | 
35 | CCN(CCc1cccc(OC)c1)Cc1cccc(OC)c1OCc1ccccc1 | 88 | > 10 | 0.9 |  |  |  |  |  | 
36 | CCCN(C/C=C/c1ccccc1)Cc1cccc(OC)c1OCc1ccccc1 | 97 | > 10 | 0.04 | 174 | 36 | 41 |  |  | 
37 | COc1cccc(CNC(C)CCc2ccccc2)c1OCc1ccccc1 (stereo not drawn) | 97 | > 10 | 0.13 |  |  |  |  |  | 
38 | COc1cccc(CNCCc2ccc(O)cc2)c1OCc1ccccc1 | 94 | > 10 | 0.2 |  |  | 19 |  |  | > 42
39 | CCN(CCCc1ccccc1)Cc1cccc(OC)c1OCc1ccccc1 | 98 | > 10 | 0.06 | 34 | 23 |  |  |  | 
40 | C=CCN(CCc1ccccc1OC)Cc1cccc(OC)c1OCc1ccccc1 | 90 | > 10 | 0.3 |  |  |  |  |  | 

Row | Structure (SMILES) | inhibition (Cholinesterase [1]) [%] | IC50 (Acetylcholinesterase [2]) [µM] | IC50 (Cholinesterase [3]) [µM] | IC50 at 24 h [4] [µM] | IC50 at 24 h [5] [µM] | Papp (in vitro) [×10⁻⁶ cm/s] | IC50 (Cholinesterase [6]) [µM] | IC50 (Acetylcholinesterase [7]) [µM] | Ratio IC50 (Homo sapiens)
41 | C=CCCN(CCCc1ccccc1)Cc1cccc(OC)c1OCc1ccccc1 | 97 | > 10 | 0.07 | 131 | 92 | 33 |  |  | 
42 | C=CCN(CCc1cccc(OC)c1)Cc1cccc(OC)c1OCc1ccccc1 | 76 | > 10 | 1.5 |  |  |  |  |  | 
43 | C#CCN(CCc1ccc(OC)cc1)Cc1cccc(OC)c1OCc1ccccc1 | 66 | > 10 | 1.3 |  |  |  |  |  | 
44 | C#CCN(CCCc1ccccc1)Cc1cccc(OC)c1OCc1ccccc1 | 76 | > 10 | 0.23 |  |  |  |  |  | 
45 | C=CCN(CCc1ccccc1)Cc1cccc(OC)c1OCc1ccccc1 | 88 | > 10 | 0.4 |  |  |  |  |  | 
46 | COc1ccccc1CCN(C)Cc1cccc(OC)c1OCc1ccccc1 | 85 | > 10 | 0.8 |  |  |  |  |  | 
47 | CCCN(CCCc1ccccc1O)Cc1cccc(OC)c1OCc1ccccc1 | 95 | > 10 | 0.22 |  |  |  |  |  | 
48 | COc1ccc(CCN(C)Cc2cccc(OC)c2OCc2ccccc2)cc1 | 76 | > 10 | 3.2 |  |  |  |  |  | 
49 | C=CCN(CCc1ccc(OC)cc1)Cc1cccc(OC)c1OCc1ccccc1 | 72 | > 10 | 2 |  |  |  |  |  | 
50 | CCCN(CCCc1cccc(O)c1)Cc1cccc(OC)c1OCc1ccccc1 | 96 | > 10 | 0.16 |  |  |  |  |  | 
51 | C#CCOc1ccc(CCN(CC=C)Cc2cccc(OC)c2OCc2ccccc2)cc1 | 64 | > 10 | 2.2 |  |  |  |  |  | 
52 | CCN(CCc1ccccc1OC)Cc1cccc(OC)c1OCc1ccccc1 | 94 | > 10 | 0.7 |  |  |  |  |  | 
53 | COc1ccc(CCNCc2cccc(OC)c2OCc2ccccc2)cc1 | 94 | > 10 | 0.4 |  |  |  |  |  | 
54 | CCOc1ccc(CCN(CC)Cc2cccc(OC)c2OCc2ccccc2)cc1 | 84 | > 10 | 0.9 |  |  |  |  |  | 
55 | CCCN(CCc1cccc(OC)c1)Cc1cccc(OC)c1OCc1ccccc1 | 89 | > 10 | 0.9 |  |  |  |  |  | 
56 | CCCN(CCCc1cccc(F)c1)Cc1cccc(OC)c1OCc1ccccc1 | 97 | > 10 | 0.039 | 123 | 41 | 27 |  |  | 
57 | COc1cccc(CN(CCCCc2ccccc2)CCCC(C)C)c1OCc1ccccc1 | 87 | > 10 | 0.29 |  |  |  |  |  | 
58 | C=CCN(CCCc1ccccc1)Cc1cccc(OC)c1OCc1ccccc1 | 98 | > 10 | 0.04 | > 200 | > 200 | 28 |  |  | 
59 | C#CCN(CCc1ccc(OCC=C)cc1)Cc1cccc(OC)c1OCc1ccccc1 | 42 | > 10 | > 10 |  |  |  |  |  | 
60 | COc1cccc(CN(C)CCCc2ccccc2)c1OCc1ccccc1 | 97 | > 10 | 0.1 |  |  |  |  |  | 
